The values that follow come from US20150148377A1, “Quinoline Derivatives” (NOVARTIS AG, priority 2011, published 2015).

SMILES strings stand for the structures.

Assay [1] concerns the target T1, PI3K alpha (Homo sapiens, UniProt P42336).
T1 construct: His tag (C); made in house; host or cells: baculovirus; Tn5 (Trichoplusia ni) or TiniPro insect cells
Kind of assay: Enzymatic PI3K alpha isoform inhibition (lipid kinase activity, Kinase-Glo). The assay is classed as biochemical. As to conditions: enzymatic assay. As to the method: The kinase reaction is performed in a final volume of 50 μl per well of a half area COSTAR, 96 well plate. The final concentrations of ATP and phosphatidyl inositol in the assay are 5 μM and 6 μg/mL, respectively. The reaction is started by the addition of PI3 kinase, e.g. PI3 kinase δ.
(§1) In a more preferred assay, the kinase reaction is performed in a final volume of 10 μl per well of a low volume non-binding CORNING, 384 well black plate (Cat. No. #3676). The final concentrations of ATP and phosphatidyl inositol (PI) in the assay are 1 μM and 10 μg/mL, respectively. The reaction is started by the addition of ATP.
(§2) The components of the assay are added per well as follows:
(§3) 50 nl test compounds in 90% DMSO per well, in columns 1-20, 8 concentrations (1/3 and 1/3.33 serial dilution step) in single. • Low control: 50 nl of 90% DMSO in half the wells of columns 23-24 (0.45% in final). • High control: 50 nl of reference compound (e.g. compound of Example 7 in WO 2006/122806) in the other half of columns 23-24 (2.5 μM in final). • Standard: 50 nl of reference compound as just mentioned diluted as the test compounds in columns 21-22. • 20 mL ‘buffer’ are prepared per assay: • 200 μl of 1M TRIS HCl pH7.5 (10 mM in final) • 60 μl of 1M MgCl2 (3 mM in final) • 500 μl of 2M NaCl (50 mM in final) • 100 μl of 10% CHAPS (0.05% in final) • 200 μl of 100 mM DTT (1 mM in final) • 18.94 mL of nanopure water • 10 mL ‘PI’ are prepared per assay: • 200 μl of 1 mg/mL 1-alpha-Phosphatidylinositol (Liver Bovine, Avanti Polar Lipids Cat. No. 840042C MW=909.12) prepared in 3% OctylGlucoside (10 μg/mL in final) • 9.8 mL of ‘buffer’ • 10 mL ‘ATP’ are prepared per assay: • 6.7 μl of 3 mM stock of ATP giving a final concentration of 1 μM per well • 10 mL of ‘buffer’ • 2.5 mL of each PI3K construct are prepared per assay in ‘PI’ with the following final concentration: • 10 nM PI3K alfa EMV B1075 • 25 nM beta EMV BV949 • 10 nM delta EMV BV1060 • 150 nM gamma EMV BV950 • 5 μl of ‘PI/PI3K’ are added per well. • 5 μl ‘ATP’ are added per well to start the reaction. • The plates are then incubated at room temperature for 60 minutes (alfa, beta, delta) or 120 minutes (gamma). • The reaction is terminated by the addition of 10 μl Kinase-Glo (Promega Cat. No. #6714). • The assay plates are read after 10 minutes in Synergy 2 reader (BioTek, Vermont USA) with an integration time of 100 milliseconds and sensitivity set to 191. • Output: The High control is around 60'000 counts and the Low control is 30'000 or lower • This luminescence assay gives a useful Z′ ratio between 0.4 and 0.7
(§4) IC50 is determined by a four parameter curve fitting routine that comes along with “excel fit”. A four parameter logistic equation is used to calculate IC50 values (IDBS XLfit) of the percentage inhibition of each compound at 8 concentrations (usually 10, 3.0, 1.0, 0.3, 0.1, 0.030, 0.010 and 0.003 μM). Alternatively, IC50 values are calculated using idbsXLfit model 204, which is a 4 parameter logistic model.
(§5) Yet alternatively, for an ATP depletion assay, compounds of the formula I to be tested are dissolved in DMSO and directly distributed into a white 384-well plate at 0.5 μl per well. To start the reaction, 10 μl of 10 nM PI3 kinase and 5 μg/mL 1-alpha-phosphatidylinositol (PI) are added into each well followed by 10 μl of 2 μM ATP. The reaction is performed until approx 50% of the ATP is depleted, and then stopped by the addition of 20 μl of Kinase-Glo solution (Promega Corp., Madison, Wis., USA). The stopped reaction is incubated for 5 minutes and the remaining ATP is then detected via luminescence. IC50 values are then determined.

The target in assay [2] is T2, PI3K delta (Homo sapiens, UniProt O00329).
T2 construct: for the full-length p110-d subunit are generated and fused by overlapping PCR; His tag (C); made in house; host or cells: baculovirus; Tn5 (Trichoplusia ni) or TiniPro insect cells
Nature of the assay: Enzymatic PI3K delta isoform inhibition (lipid kinase activity, Kinase-Glo). The class given is biochemical. The note with it: enzymatic assay. The method, then:
as §1, §2, §3, §4, §5
On the technique in general: Kinase-Glo measures the ATP left after a reaction by luminescence.

T1 sequence (P42336 with tags, fused parts or gaps limits assumed): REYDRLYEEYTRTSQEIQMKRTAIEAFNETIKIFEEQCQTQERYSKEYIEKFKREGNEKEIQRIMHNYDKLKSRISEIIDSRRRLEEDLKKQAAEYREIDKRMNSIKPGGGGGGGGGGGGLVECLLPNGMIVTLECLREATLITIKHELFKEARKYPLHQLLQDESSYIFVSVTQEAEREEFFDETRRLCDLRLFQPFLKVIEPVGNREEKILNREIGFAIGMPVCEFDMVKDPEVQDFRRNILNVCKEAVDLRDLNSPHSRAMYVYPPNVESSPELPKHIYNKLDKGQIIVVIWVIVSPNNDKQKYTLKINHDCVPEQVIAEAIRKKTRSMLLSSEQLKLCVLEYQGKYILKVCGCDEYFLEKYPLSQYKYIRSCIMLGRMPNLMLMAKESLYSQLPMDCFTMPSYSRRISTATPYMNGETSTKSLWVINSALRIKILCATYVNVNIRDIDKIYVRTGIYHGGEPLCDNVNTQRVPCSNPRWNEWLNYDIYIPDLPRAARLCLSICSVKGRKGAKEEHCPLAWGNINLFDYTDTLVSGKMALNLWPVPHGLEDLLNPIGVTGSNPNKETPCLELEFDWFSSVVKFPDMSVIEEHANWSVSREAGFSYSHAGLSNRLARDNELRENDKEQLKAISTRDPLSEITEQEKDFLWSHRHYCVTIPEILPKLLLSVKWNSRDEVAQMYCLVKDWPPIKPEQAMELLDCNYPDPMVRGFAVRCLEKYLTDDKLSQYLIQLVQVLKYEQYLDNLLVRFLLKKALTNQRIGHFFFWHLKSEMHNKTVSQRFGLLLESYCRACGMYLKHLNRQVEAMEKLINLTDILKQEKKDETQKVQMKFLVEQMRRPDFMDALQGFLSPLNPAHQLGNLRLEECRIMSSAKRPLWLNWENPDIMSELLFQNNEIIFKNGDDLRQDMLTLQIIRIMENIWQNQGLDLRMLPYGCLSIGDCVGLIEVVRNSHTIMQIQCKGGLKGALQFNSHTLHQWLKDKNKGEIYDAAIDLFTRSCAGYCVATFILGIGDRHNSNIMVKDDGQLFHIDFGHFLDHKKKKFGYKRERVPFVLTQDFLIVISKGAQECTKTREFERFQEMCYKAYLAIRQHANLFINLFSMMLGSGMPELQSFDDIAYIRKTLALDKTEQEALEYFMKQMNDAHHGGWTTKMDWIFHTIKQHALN
T2 sequence (O00329 with tags, fused parts or gaps limits assumed): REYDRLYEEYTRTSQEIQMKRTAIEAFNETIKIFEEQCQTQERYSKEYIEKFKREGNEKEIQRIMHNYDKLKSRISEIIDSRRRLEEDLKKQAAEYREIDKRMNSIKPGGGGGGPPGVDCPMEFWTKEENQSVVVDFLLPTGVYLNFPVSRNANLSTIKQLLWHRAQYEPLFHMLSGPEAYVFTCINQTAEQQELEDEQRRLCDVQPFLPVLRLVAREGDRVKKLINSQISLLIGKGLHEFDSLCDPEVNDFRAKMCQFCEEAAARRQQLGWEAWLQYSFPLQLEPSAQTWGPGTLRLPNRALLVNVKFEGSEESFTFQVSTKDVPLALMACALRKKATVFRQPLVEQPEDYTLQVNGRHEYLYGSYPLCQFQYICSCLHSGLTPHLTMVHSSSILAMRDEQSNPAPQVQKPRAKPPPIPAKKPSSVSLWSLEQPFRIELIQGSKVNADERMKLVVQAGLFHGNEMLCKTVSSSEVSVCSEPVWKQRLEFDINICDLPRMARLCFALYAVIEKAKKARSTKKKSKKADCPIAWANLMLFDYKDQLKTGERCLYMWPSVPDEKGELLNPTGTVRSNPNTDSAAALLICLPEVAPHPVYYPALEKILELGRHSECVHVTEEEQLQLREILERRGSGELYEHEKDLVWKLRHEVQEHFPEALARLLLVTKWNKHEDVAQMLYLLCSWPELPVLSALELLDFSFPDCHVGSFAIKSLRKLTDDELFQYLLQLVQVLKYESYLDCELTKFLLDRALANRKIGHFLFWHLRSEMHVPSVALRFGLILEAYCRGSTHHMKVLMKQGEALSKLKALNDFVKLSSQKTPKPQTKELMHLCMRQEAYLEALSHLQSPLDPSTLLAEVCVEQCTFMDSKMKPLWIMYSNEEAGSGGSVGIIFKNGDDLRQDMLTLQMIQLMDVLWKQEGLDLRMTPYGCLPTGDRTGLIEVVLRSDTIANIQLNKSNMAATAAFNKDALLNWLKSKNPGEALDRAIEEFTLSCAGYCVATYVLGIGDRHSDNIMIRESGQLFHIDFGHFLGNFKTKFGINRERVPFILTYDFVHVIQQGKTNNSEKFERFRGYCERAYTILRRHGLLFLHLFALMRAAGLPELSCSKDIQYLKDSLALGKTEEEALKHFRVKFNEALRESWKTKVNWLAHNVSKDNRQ

With `CC(=O)N1CC[C@@H](C(=O)N2CC[C@H](Oc3ccc4nccc(-c5cnc(S(C)(=O)=O)c(C)c5)c4c3)C2)C1` [Example A21, 1-((R)-3-{(S)-3-[4-(6-Methanesulfonyl-5-methyl-pyridin-3-yl)-quinolin-6-yloxy]-pyrrolidine-1-carbonyl}-pyrrolidin-1-yl)-ethanone], the IC50 (in general, the midpoint of a concentration-inhibition curve) in assay [1] was found to be 0.822 µM; in assay [2], 0.007 µM.

In the case of `COc1ncc(-c2ccnc3ccc(O[C@H]4CCN(C(=O)C5CCOCC5)C4)cc23)cc1F` [Example A13, {(S)-3-[4-(5-Fluoro-6-methoxy-pyridin-3-yl)-quinolin-6-yloxy]-pyrrolidin-1-yl}-(tetrahydro-pyran-4-yl) methanone], the IC50 in assay [1] came out at 0.802 µM; in assay [2] it was 0.005 µM.

As to `COc1ncc(-c2ccnc3ccc(O[C@H]4CCN(C(=O)C5CCS(=O)(=O)CC5)C4)cc23)cc1F` [Example A4, (1,1-Dioxo-hexahydro-1lambda*6*-thiopyran-4-yl)-{(S)-3-[4-(5-fluoro-6-methoxy-pyridin-3-yl)-quinolin-6-yloxy]-pyrrolidin-1-yl}-methanone], the IC50 in assay [1] amounted to 0.128 µM; in assay [2], 0.003 µM.

As for `CCC(=O)N1CC[C@H](Oc2ccc3nccc(-c4cnc(N)c(C(F)(F)F)c4)c3c2)C1` [Example A34, 1-{(S)-3-[4-(6-Amino-5-trifluoromethyl-pyridin-3-yl)-quinolin-6-yloxy]-pyrrolidin-1-yl}-propan-1-one], the IC50 in assay [1] stood at 0.035 µM; in assay [2], 0.027 µM.

As for `CCC(=O)N1CC[C@H](Oc2ccc3nccc(-c4cnc(OC)c(C#N)c4)c3c2)C1` [Example A18, 2-Methoxy-5-[6-((S)-1-propionyl-pyrrolidin-3-yloxy)-quinolin-4-yl]-nicotinonitrile], the IC50 in assay [1] was 0.613 µM; in assay [2], 0.007 µM.
